# According to patent publication US9795551B2, “Tetrapeptides and a method of use as an antioxidant” (L'OREAL, priority 2014, dated 2017):
# Columns and labels:
# [1] = ORAC oxygen radical absorbance capacity (USTM 192), in tubo
# Method: (§1) In the screening standard testing for oxygen radical absorbance capacity (ORAC) and hydroxyl radical absorbance capacity (HORAC) were conducted with the test polypeptides. Testing was conducted according to USTM 190 (HORAC) and USTM 192 (ORAC).
# (§2) The peptides were tested in tubo for their antioxidant properties and tested against reference/known antioxidants. The evaluation of the antioxidant properties were conducted by determination of the ORAC (USTM 192) and HORAC (USTM 190) test methods. The results are listed in Table I for the peptides of the invention and for the conventionally known antioxidants vitamin C and Carnosine.
# [2] = HORAC hydroxyl radical absorbance capacity (USTM 190), in tubo
# Method: as §1, §2
Molecule,ORAC/peroxyl [1] [μmol GAE/g],HORAC/hydroxyl [2]
"NCCC(=O)N[C@@H](Cc1c[nH]cn1)C(=O)O [Carnosine, β-alanyl-histidine, reference compound]",354,2099 μmol GAE/g
"O=C1O[C@H]([C@@H](O)CO)C(O)=C1O [Vitamin C, reference compound]",4456,0 μmol GAE/g
Ac-wRyR-NH2 [RED27],5342,735 μmol GAE/g
RwRyR-NH2 [RED26],4461,No capacity
RyR-NH2 [RED32],3385,230 μmol GAE/g
WKYK-NH2 [RED25],4168,2476 μmol GAE/g
WRYR [RED23],4091,2089 μmol GAE/g
WRYR-NH2 [RED6],4488,1548 μmol GAE/g
WRYr-NH2 [RED19],4350,1457 μmol GAE/g
WRyR-NH2 [RED21],4816,2472 μmol GAE/g
WrYR-NH2 [RED20],4448,1666 μmol GAE/g
WrYr-NH2 [RED18],4758,2982 μmol GAE/g
wRYR-NH2 [RED24],4077,2225 μmol GAE/g
wRwR-NH2 [RED31],4652,1189 μmol GAE/g
wRyR-NH2 [RED22],5383,1686 μmol GAE/g
wRyRw-NH2 [RED29],5512,No capacity
wRyRy-NH2 [RED28],5216,No capacity
